{"source": "patent US20100137440A1", "about": "“LYSINE RIBOSWITCHES, STRUCTURE-BASED COMPOUND DESIGN WITH LYSINE RIBOSWITCHES, AND METHODS AND COMPOSITIONS FOR USE OF AND WITH LYSINE RIBOSWITCHES” (Yale University, priority 2006, published 2010)", "key": {"[1]": {"system": "lysC lysine riboswitch upstream of lacZ reporter gene", "test": "In vivo reporter gene (β-galactosidase) expression assay, wild-type lysC riboswitch", "type": "cell-based, B. subtilis", "settings": "for repression of β-galactosidase reporter gene expression controlled by lysC riboswitch: 3 h growth in presence of compound (5 mM, FIG. 3c); for reporter gene expression at the compound's MIC: at respective MICs"}, "[2]": {"system": "resistant B. subtilis strains (M1, M2)", "test": "MIC toward L-4-oxalysine-resistant strains (M1, M2)", "type": "cell-based", "settings": "for effect of M1 and M2 mutations on susceptibility: M1 and M2 strains"}, "[3]": {"system": "179-nucleotide receptor domain (179 lysC) of the lysC lysine riboswitch", "test": "In-line probing assay, ligand binding to 179 lysC", "parameters": "species or system B. subtilis", "settings": "for binding to 179 lysC / lysine aptamer (in words): in vitro"}, "[4]": {"system": "B. subtilis 168 (1A1)", "test": "Antibacterial activity assay (growth curves, MIC) in chemically defined minimal media", "type": "cell-based", "settings": "for complete inhibition of bacterial growth for 24 h: minimal medium; for bacterial growth in minimal medium: 100 μM compound, chemically-defined minimal medium"}, "[5]": {"system": "B. subtilis M2 strain", "test": "Sporulation assay, M2 strain", "settings": "2 mM analog; spores after heat shock relative to CFU before heat shock"}, "[6]": {"system": "B. subtilis 168 strain 1A1 (WT)", "test": "Sporulation assay, WT strain", "settings": "for % Viable spore formation, WT: spores after heat shock relative to CFU before heat shock"}, "[7]": {"system": "179-nucleotide receptor domain (179 lysC) of the lysC lysine riboswitch", "settings": "Sudarsan 2006; cited from earlier work"}, "[8]": {"system": "lysC lysine riboswitch upstream of lacZ reporter gene", "settings": "Sudarsan 2006; cited from earlier work"}, "[9]": {"system": "B. cereus", "type": "cell-based, Bacillus cereus", "settings": "minimal medium"}, "[10]": {"system": "lysC riboswitch with the M1 or M2 mutation upstream of β-galactosidase reporter", "test": "Reporter gene (β-galactosidase) expression assay, M1 or M2 riboswitch constructs", "type": "cell-based, B. subtilis", "settings": "high compound concentrations (lysine as high as 5 mM)"}, "[11]": {"system": "B. subtilis lysine auxotroph strain 1A40", "type": "cell-based", "settings": "1 mM compound, 3 h, minimal media"}}, "note": "“Also recorded” adds a separate entry of the source.", "data": [{"compound": "NC/C=C/CC(N)C(=O)O", "note": "(racemic) [Compound 4, DL-trans-2,6-diamino-4-hexenoic acid]", "values": [{"measurement": "repression of β-galactosidase reporter gene expression controlled by lysC riboswitch", "setting": "[1]", "result": "significantly repress"}, {"measurement": "effect of M1 and M2 mutations on susceptibility", "setting": "[2]", "result": "confer resistance"}, {"measurement": "binding to 179 lysC / lysine aptamer (in words)", "setting": "[3]", "result": "bind well"}, {"measurement": "complete inhibition of bacterial growth for 24 h", "setting": "[4]", "result": "completely inhibit bacterial growth"}]}, {"compound": "NCC(=O)CCC(N)C(=O)O", "note": "(racemic) [Compound 8, DL-5-oxolysine]", "values": [{"measurement": "repression of β-galactosidase reporter gene expression controlled by lysC riboswitch", "setting": "[1]", "result": "do not repress expression"}, {"measurement": "% Viable spore formation, M2", "setting": "[5]", "result": 9, "unit": "%"}, {"measurement": "binding to 179 lysC / lysine aptamer (in words)", "setting": "[3]", "result": "poor affinity; also recorded: rejected by the lysine aptamer"}, {"measurement": "bacterial growth in minimal medium", "setting": "[4]", "result": "modest level of growth inhibition activity"}, {"measurement": "formation of viable spores (in words)", "setting": "[6]", "result": "do not"}, {"measurement": "% Viable spore formation, WT", "setting": "[6]; 2 mM analog", "result": 47, "unit": "%"}]}, {"compound": "NCC(O)CC[C@H](N)C(=O)O", "note": "(stereo partly shown) [5-hydroxylysine]", "values": [{"measurement": "binding to the lysC riboswitch (previous report)", "setting": "[7]", "result": "fails to bind"}]}, {"compound": "NCCSC[C@H](N)C(=O)O", "note": "[AEC, L-aminoethylcysteine]", "values": [{"measurement": "repression of lysC-regulated reporter gene (previous report)", "setting": "[8]", "result": "represses the expression"}, {"measurement": "binding to the lysC riboswitch (previous report)", "setting": "[7]", "result": "bind well; also recorded: binds to the lysC riboswitch"}]}, {"compound": "NCCS(=O)(=O)C[C@H](N)C(=O)O", "note": "[Compound 1, L-3-[(2-aminoethyl)-sulfonyl]-alanine]", "values": [{"measurement": "repression of β-galactosidase reporter gene expression controlled by lysC riboswitch", "setting": "[1]", "result": "significantly repress"}, {"measurement": "reporter gene expression at the compound's MIC", "setting": "[1]", "result": "completely repress"}, {"measurement": "growth inhibition of B. cereus relative to B. subtilis", "setting": "[9]", "result": 13, "unit": "fold"}, {"measurement": "effect of M1 and M2 mutations on susceptibility", "setting": "[2]", "result": "confer resistance"}, {"measurement": "% Viable spore formation, M2", "setting": "[5]", "result": 17, "unit": "%"}, {"measurement": "binding to 179 lysC / lysine aptamer (in words)", "setting": "[3]", "result": "bind well"}, {"measurement": "β-galactosidase expression from M1 or M2 constructs", "setting": "[10]", "result": "fully active β-galactosidase is still expressed"}, {"measurement": "complete inhibition of bacterial growth for 24 h", "setting": "[4]", "result": "completely inhibit bacterial growth"}, {"measurement": "formation of viable spores (in words)", "setting": "[6]", "result": "inhibit the formation of viable spores"}, {"measurement": "% Viable spore formation, WT", "setting": "[6]; 0.2 mM analog", "result": 7, "unit": "%"}, {"measurement": "% Viable spore formation, WT", "setting": "[6]; 2 mM analog", "result": 0, "unit": "%"}]}, {"compound": "NCCOC[C@H](N)C(=O)O", "note": "[Compound 2, L-4-oxalysine]", "values": [{"measurement": "repression of β-galactosidase reporter gene expression controlled by lysC riboswitch", "setting": "[1]", "result": "significantly repress"}, {"measurement": "reporter gene expression at the compound's MIC", "setting": "[1]", "result": "completely repress"}, {"measurement": "increase of MIC in resistant colonies", "setting": "[2]; 24 colonies isolated by serial passage, versus wild type", "result": "at least 9 fold"}, {"measurement": "% Viable spore formation, M2", "setting": "[5]", "result": 65, "unit": "%"}, {"measurement": "binding to 179 lysC / lysine aptamer (in words)", "setting": "[3]", "result": "bind well"}, {"measurement": "β-galactosidase expression from M1 or M2 constructs", "setting": "[10]", "result": "fully active β-galactosidase is still expressed"}, {"measurement": "complete inhibition of bacterial growth for 24 h", "setting": "[4]", "result": "completely inhibit bacterial growth"}, {"measurement": "formation of viable spores (in words)", "setting": "[6]", "result": "inhibit the formation of viable spores"}, {"measurement": "% Viable spore formation, WT", "setting": "[6]; 0.2 mM analog", "result": 71, "unit": "%"}, {"measurement": "% Viable spore formation, WT", "setting": "[6]; 2 mM analog", "result": 6, "unit": "%"}]}, {"compound": "N=C(N)NCCCC[C@H](N)C(=O)O", "note": "[Compound 3, L-homoarginine]", "values": [{"measurement": "growth of lysine auxotroph strain 1A40", "setting": "[11]", "result": "supports the growth; also recorded: support growth"}, {"measurement": "binding to 179 lysC / lysine aptamer (in words)", "setting": "[3]", "result": "binds strongly"}]}, {"compound": "CC(=O)N[C@@H](CCCCN)C(=O)O", "note": "[Compound 5, L-N^2-acetyllysine]", "values": [{"measurement": "binding to 179 lysC / lysine aptamer (in words)", "setting": "[3]", "result": "does not tolerate modifications at N2"}]}, {"compound": "CC(=N)NCCCC[C@H](N)C(=O)O", "note": "[Compound 7, L-N^6-1-iminoethyllysine]", "values": [{"measurement": "repression of β-galactosidase reporter gene expression controlled by lysC riboswitch", "setting": "[1]", "result": "does not repress"}, {"measurement": "binding to 179 lysC / lysine aptamer (in words)", "setting": "[3]", "result": "strong binding"}, {"measurement": "bacterial growth in minimal medium", "setting": "[4]", "result": "fails to inhibit cell growth"}]}, {"compound": "Nc1cc(C[C@H](N)C(=O)O)ccc1O", "note": "[Compound 9, L-3-aminotyrosine]", "values": [{"measurement": "repression of β-galactosidase reporter gene expression controlled by lysC riboswitch", "setting": "[1]", "result": "do not repress expression"}, {"measurement": "% Viable spore formation, M2", "setting": "[5]", "result": 75, "unit": "%"}, {"measurement": "binding to 179 lysC / lysine aptamer (in words)", "setting": "[3]", "result": "poor affinities; also recorded: rejected by the lysine aptamer"}, {"measurement": "bacterial growth in minimal medium", "setting": "[4]", "result": "modest level of growth inhibition activity"}, {"measurement": "formation of viable spores (in words)", "setting": "[6]", "result": "do not"}, {"measurement": "% Viable spore formation, WT", "setting": "[6]; 2 mM analog", "result": 75, "unit": "%"}]}, {"compound": "Nc1ccccc1C(=O)C[C@H](N)C(=O)O", "note": "[Compound 10, L-2-amino-3-(2-aminobenzoyl)-propionic acid]", "values": [{"measurement": "binding to 179 lysC / lysine aptamer (in words)", "setting": "[3]", "result": "poor affinities"}]}, {"compound": "CN[C@@H](CCCCN)C(=O)O", "note": "[Compound 11, L-N^2-methyllysine]", "values": [{"measurement": "binding to 179 lysC / lysine aptamer (in words)", "setting": "[3]", "result": "does not tolerate modifications at N2"}]}, {"compound": "C[N+](C)(C)CCCC[C@H](N)C(=O)O", "note": "[Compound 12, L-N^6-trimethyllysine]", "values": [{"measurement": "binding to 179 lysC / lysine aptamer (in words)", "setting": "[3]", "result": "no binding is observed"}]}, {"compound": "NCCCC[C@H](N)C(=O)O", "note": "[lysine, L-lysine]", "values": [{"measurement": "repression of β-galactosidase reporter gene expression controlled by lysC riboswitch", "setting": "[1]", "result": "strongly repressed"}, {"measurement": "growth of lysine auxotroph strain 1A40", "setting": "[11]", "result": "support growth"}, {"measurement": "Kd", "setting": "[3]", "result": 360, "unit": "nM"}]}]}
